Measurements: paper PMC5442318, “Hundreds of dual-stage antimalarial molecules discovered by a functional gametocyte screen” (Nature Communications, 2017)
Read-outs that look alike come from different tables or passages of the source.

Key:
[1] = test system: P. falciparum stage V female gametocytes; assay: P. falciparum female gametocyte activation assay (Pf FGAA), 24 h or 48 h preincubation, Pfs25 expression readout; assay type: cell-based, Plasmodium falciparum NF54; details: for Pf FGAA classification: SLOW / FAST / GAMETE from activity at 48h, 24h, 0h incubation
In short: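 Purified stage V gametocytes from P. falciparum NF54 gametocyte cultures were exposed to compounds for 24 h or 48 h at 37 °C under 3% O2/5% CO2, then activated by temperature drop plus xanthurenic acid. Activated females were stained with Cy3-anti-Pfs25 (0.5 μg ml^−1) for 24 h at 26 °C and counted by high-content imaging; pIC50 by nonlinear regression.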

[2] = test system: P. falciparum asexual blood stages; details: cited from earlier work; for IC50: read-out: Pf Asexual blood stages XC50
[3] = test system: P. falciparum stages IV–V gametocytes; assay: Gametocytocidal ATP-depletion assay (gametocyte ATP bioluminescence); assay type: cell-based, Plasmodium falciparum
In short: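 Purified stage IV–V gametocytes (12,500/well) incubated with compound for 48 h at 37 °C under 3% O2/5% CO2. ATP measured by BacTiter-Glo luminescence as a viability surrogate; hits tested at 2 μM single concentration.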

[4] = test system: P. falciparum female gametes; assay: Pf FGAA with compounds added 30 min after triggering gametocyte activation (gamete-targeting); assay type: cell-based, Plasmodium falciparum NF54; details: 0h incubation time
HepG2 cells = assay: HepG2 cytotoxicity assay; assay type: cell-based
In short: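 After compound incubation, plates and CellTiter-Glo reagent were brought to room temperature for 30 min. The reagent was then added, and luminescence was read after a 10 min room-temperature stabilization.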

[5] = 24h incubation time, read-out: Pf FGAA IC50 (µM) 24h
[6] = P. falciparum female gametocytes, mean, read-out: Gametocytes mean Pf FGAA IC50
[7] = TCAMS asexual blood stage data, ref 1 (Gamo, F. J. et al., Nature 465, 305-310, 2010)
[8] = TCAMS data, ref 1 (Gamo, F. J. et al., Nature 465, 305-310, 2010)
[9] = mean, read-out: Gametocytes mean Pf FGAA IC50
[10] = TCAMS data, ref 1 (Gamo et al., 2010)

SMILES	IC50 [1, 6] [µM]	IC50 [2, 7] [nM]	Gametocytes mean ATP inhibition at 2µM [3] [%]	HepG2 cells mean TOX50 (HepG2 cells; HepG2 cells; mean) [µM]	IC50 [1, 9] [µM]	IC50 [2, 10] [nM]	Gametocytes mean ATP inhibition at 2µM (%) [3] [%]	HepG2 cells mean TOX50 (HepG2 cells; mean) [µM]	other results
O=C(c1ccc([N+](=O)[O-])o1)N1CCN(c2nc3c(F)cc(F)cc3s2)CC1 [TCMDC-125149]	1.31	970	5.52	>100	–	–	–	–	IC50 [1, 5]: 1.25 µM; Pf FGAA classification [1]: FAST; Pf Asexual stages XC50 [2, 8]: 0.97 µM; IC50 [4]: > 20 µM; HepG2 cells TOX50 (HepG2 cells; HepG2 cells): >100 µM
CC(C)(CN)c1nc(-c2ccc(Br)c(O)c2)c(-c2ccncc2)[nH]1.Cl [TCMDC-140680]	–	–	–	–	0.84	960	-3.29	45.82	IC50 [1, 5]: 0.79 µM; Pf FGAA classification [1]: GAMETE; Pf Asexual stages XC50 [2, 8]: 0.39 µM; IC50 [4]: 0.49 µM
NC1CCN(CCc2ccc(NS(=O)(=O)c3ccc(-c4ccccc4)cc3)cc2)CC1 [TCMDC-134085]	–	1020	–	7.17	–	–	–	–	IC50 ([1]; Plasmodium falciparum, 24h incubation time, read-out: Pf FGAA IC50 (µM) 24h): 1.98 µM; IC50 ([1]; Plasmodium falciparum, P. falciparum female gametocytes, mean, read-out: Gametocytes mean Pf FGAA IC50): 0.75 µM; Pf FGAA classification [1]: FAST; Pf Asexual stages XC50 [2, 8]: 1.02 µM; inhibition at 2 µM ([3]; Plasmodium falciparum, mean): -6.2%; IC50 ([4]; Plasmodium falciparum): > 20 µM; Selectivity ratio (HepG2 cells; HepG2 TOX50 versus Pf FGAA IC50): 9.58
O=C(NCC1CCN(Cc2cccc(C(F)(F)F)c2)C1)c1cc(-c2cccc(Cl)c2)cs1.O=C(O)C(F)(F)F (centres unmarked) [TCMDC-134485]	0.89	800	2.16	16.03	–	–	–	–	IC50 [1, 5]: 12 µM; Pf FGAA classification [1]: SLOW; Pf Asexual stages XC50 [2, 8]: 0.80 µM; IC50 [4]: > 20 µM
C[C@H](Cc1ccc(C[C@@H](C)NC[C@H](O)c2cccc(Cl)c2)cc1)NC[C@H](O)COc1ccccc1.Cl [TCMDC-131549]	1.39	1170	20.38	5.19	–	–	–	–	–
CC(C)(CN)c1cc(-c2ccc(Cl)c(O)c2)c(-c2ccncc2)o1.Cl [TCMDC-141334]	–	1140	-5.00	–	–	–	–	–	IC50 ([1]; mean, P. falciparum female gametocyte activation assay, read-out: Gametocytes mean Pf FGAA IC50): 0.42 µM; HepG2 cells mean TOX50 (HepG2 cells; mean; HepG2 cells): 9.98 µM
c1ccc(CNc2cc(-c3ccccn3)nc(-c3ccccn3)n2)cc1 [TCMDC-125421]	0.32	300	76.15	13.04	–	–	–	–	–
CS(=O)(=O)O.FC(F)(F)COc1ccc2ccccc2c1CCNCCCCNCCc1c(OCC(F)(F)F)ccc2ccccc12 [TCMDC-137317]	–	–	–	–	1.01	430	88.24	2.09	–
Cl.c1ccc2c(NCCCCCCCCCNc3ccnc4ccccc34)ccnc2c1 [TCMDC-137750]	–	–	–	–	0.85	120	35.04	1.50	–
COc1ccc2c(c1CCNCCCCNCCc1c(OC)ccc3c1CCCC3)CCCC2.CS(=O)(=O)O [TCMDC-137324]	–	–	–	–	0.64	380	95.49	1.68	–
CN1CCN(CCCNCc2cccc(-c3ccc(CNCCc4ccccc4)cc3)c2)CC1 [TCMDC-140643]	–	–	–	–	1.91	780	22.49	7.92	–
O=C(NCCCCN1CCC(c2ccc3c(c2OCCN2CCCC2)CCCC3)CC1)c1ccc(-c2ccc(C(F)(F)F)cc2)cc1 [TCMDC-138768]	–	–	–	–	1.98	450	-10.59	5.39	–
COc1ccccc1-c1nc2c(ccc3nc(N)nc(N)c32)[nH]1 [TCMDC-137976]	–	–	–	–	1.13	180	85.21	2.87	–
Cl.O=C(NCCCCN1CCC(c2ccc3c(c2O)CCCC3)CC1)c1ccc(NC(=O)c2ccc(Cl)cc2)cc1 [TCMDC-138645]	–	–	–	–	1.49	240	-0.21	3.80	–
CC(C)(C)c1ccc(CNC(=O)c2ccc(CNC3CCC(N)CC3)s2)cc1 (centres unmarked) [TCMDC-140777]	–	–	–	–	2.44	530	10.64	8.95	–
Br.Oc1ccc(CCNCCCCCCNCCc2ccc(-c3ccccc3)cc2)cc1O [TCMDC-131268]	10.9	600	64.17	13.18	–	–	–	–	–

SMILES	IC50 [1, 6] [µM]	IC50 [2, 7] [nM]	Gametocytes mean ATP inhibition at 2µM [3] [%]	HepG2 cells mean TOX50 (HepG2 cells; HepG2 cells; mean) [µM]	IC50 [1, 9] [µM]	IC50 [2, 10] [nM]	Gametocytes mean ATP inhibition at 2µM (%) [3] [%]	HepG2 cells mean TOX50 (HepG2 cells; mean) [µM]	other results
Cc1n[nH]c2ccc(-c3ccc4nccc(N5CCC(N)CC5)c4c3)cc12.Cl [TCMDC-134315]	2.45	590	71.38	6.88	–	–	–	–	–
COc1ccc2ccc(OC)c(CNCCCCCCNCc3c(OC)ccc4ccc(OC)cc34)c2c1.CS(=O)(=O)O [TCMDC-137796]	–	–	–	–	1.21	700	68.84	3.31	–
Cc1oc(-c2ccc(Cl)cc2)cc1C(=O)NCCC1CCN(CCCCCNC(=O)/C=C/c2ccc(Cl)c(Cl)c2)CC1 [TCMDC-140009]	–	–	–	–	1.83	450	-9.24	3.31	–
COc1cc2nc(N3CCN(C(=O)c4c(Cl)nsc4-c4ccccc4Cl)CC3)nc(N)c2cc1OC.O=C(O)C(F)(F)F [TCMDC-138186]	–	–	–	–	0.99	530	69.90	5.89	–
CC(=O)c1ccc2nc[nH]c(=O)c2c1 [TCMDC-138172]	–	–	–	–	0.98	720	67.05	6.24	–
Cl.c1ccc2c(NCCCCCCCCCNc3c4ccccc4nc4ccccc34)c3ccccc3nc2c1 [TCMDC-124286]	1.8	300	51.90	4.90	–	–	–	–	–
COc1ccc(-c2csc3ncnc(Cl)c23)cc1 [TCMDC-123805]	1.46	780	-0.54	0.55	–	–	–	–	–
CCC1CN2CCc3cc(OC)c(OC)cc3C2CC1CC1NCCc2cc(OC)c(OC)cc21 (centres unmarked) [TCMDC-125849]	1.82	150	60.00	2.24	–	–	–	–	–
CC(C)c1ccc(CN2CCC(CNC(=O)c3cc(-c4ccc(N(C)C)cc4)cs3)C2)cc1.O=C(O)C(F)(F)F (centres unmarked) [TCMDC-134440]	0.71	1250	-6.60	5.85	–	–	–	–	–
COc1cccc(-c2csc(C(=O)NCC3CCN(Cc4ccc(C(C)(C)C)cc4)C3)c2)c1.O=C(O)C(F)(F)F (centres unmarked) [TCMDC-134447]	0.65	1180	-7.16	5.78	–	–	–	–	–
CN1CCN(CCCN(Cc2cccc(-c3ccc(CNCCc4ccccc4)cc3)c2)C(=O)c2cccs2)CC1.O=C(O)C(F)(F)F [TCMDC-140568]	–	–	–	–	1.71	720	-8.58	5.98	–
CC(Cc1ccc(NC(=O)c2ccc(CNCCc3ccccc3)cc2)cc1)NCCc1cccc(Cl)c1.Cl (centres unmarked) [TCMDC-139867]	–	–	–	–	2.07	350	10.73	4.17	–
Nc1nc(N)c2c(ccc3c2ccn3Cc2ccc(-c3ccccc3)cc2)n1 [TCMDC-137813]	–	–	–	–	2.01	50	26.93	1.16	–
COc1ccc(-c2ccccc2)cc1NC(=S)NC1CCC(CN2CCC(c3c[nH]c4ccccc34)CC2)CC1 (centres unmarked) [TCMDC-140182]	–	–	–	–	1.65	650	21.09	5.50	–
Fc1ccc(OC2CN(c3nccc(NCc4ccccc4Cl)n3)C2)cc1 [TCMDC-135110]	5.22	900	44.31	83.45	–	–	–	–	–
CCCC(N)C(=O)NC1CCN(c2c(F)c(N)c3c(=O)c(C(=O)O)cn4c3c2Oc2ccccc2-4)C1.Cl (centres unmarked) [TCMDC-125701]	1.14	360	0.82	1.61	–	–	–	–	–
